Assay results reported in paper PMC9544403, “Schwarzinicine A inhibits transient receptor potential canonical channels and exhibits overt vasorelaxation effects” (Phytotherapy Research, 2022).

How the values were obtained:
Assay type in all cases: cell-based
hTRPC6 = molecular target: T1, hTRPC6 (Homo sapiens, UniProt Q9Y210); assay: fura-2 intracellular calcium assay, OAG-activated hTRPC6 transfected in HEK […] cells
T1 construct: gene TRPC6
T1 sequence (Q9Y210 1-931): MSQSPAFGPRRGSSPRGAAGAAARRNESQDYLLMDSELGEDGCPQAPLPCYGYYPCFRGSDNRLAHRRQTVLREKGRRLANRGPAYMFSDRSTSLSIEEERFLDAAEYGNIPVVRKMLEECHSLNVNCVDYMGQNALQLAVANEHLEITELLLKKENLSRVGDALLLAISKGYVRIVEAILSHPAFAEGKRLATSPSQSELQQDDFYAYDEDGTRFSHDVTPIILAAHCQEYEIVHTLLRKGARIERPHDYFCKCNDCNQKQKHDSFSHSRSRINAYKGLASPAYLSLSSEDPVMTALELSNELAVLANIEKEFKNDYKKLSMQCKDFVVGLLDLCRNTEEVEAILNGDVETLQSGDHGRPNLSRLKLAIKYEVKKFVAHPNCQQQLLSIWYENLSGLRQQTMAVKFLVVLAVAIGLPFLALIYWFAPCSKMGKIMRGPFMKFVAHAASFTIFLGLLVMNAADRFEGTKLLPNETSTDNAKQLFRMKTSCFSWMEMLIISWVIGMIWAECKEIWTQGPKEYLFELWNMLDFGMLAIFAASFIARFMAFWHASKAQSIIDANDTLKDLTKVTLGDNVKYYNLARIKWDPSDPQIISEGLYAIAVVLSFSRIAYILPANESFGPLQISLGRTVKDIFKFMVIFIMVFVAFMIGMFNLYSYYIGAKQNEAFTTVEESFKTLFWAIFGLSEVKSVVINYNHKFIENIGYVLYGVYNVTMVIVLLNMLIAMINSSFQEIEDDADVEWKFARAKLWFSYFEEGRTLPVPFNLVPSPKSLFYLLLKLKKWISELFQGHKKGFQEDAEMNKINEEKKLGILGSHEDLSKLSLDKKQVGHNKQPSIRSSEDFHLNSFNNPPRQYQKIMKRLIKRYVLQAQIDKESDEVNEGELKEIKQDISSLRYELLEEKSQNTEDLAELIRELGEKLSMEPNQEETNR

hTRPC4 = molecular target: T2, hTRPC4 (Homo sapiens, UniProt Q9UBN4); assay: fura-2 intracellular calcium assay, S1P-activated hTRPC4 overexpressed in HEK T-REx cells
T2 construct: gene TRPC4
T2 sequence (Q9UBN4 1-977): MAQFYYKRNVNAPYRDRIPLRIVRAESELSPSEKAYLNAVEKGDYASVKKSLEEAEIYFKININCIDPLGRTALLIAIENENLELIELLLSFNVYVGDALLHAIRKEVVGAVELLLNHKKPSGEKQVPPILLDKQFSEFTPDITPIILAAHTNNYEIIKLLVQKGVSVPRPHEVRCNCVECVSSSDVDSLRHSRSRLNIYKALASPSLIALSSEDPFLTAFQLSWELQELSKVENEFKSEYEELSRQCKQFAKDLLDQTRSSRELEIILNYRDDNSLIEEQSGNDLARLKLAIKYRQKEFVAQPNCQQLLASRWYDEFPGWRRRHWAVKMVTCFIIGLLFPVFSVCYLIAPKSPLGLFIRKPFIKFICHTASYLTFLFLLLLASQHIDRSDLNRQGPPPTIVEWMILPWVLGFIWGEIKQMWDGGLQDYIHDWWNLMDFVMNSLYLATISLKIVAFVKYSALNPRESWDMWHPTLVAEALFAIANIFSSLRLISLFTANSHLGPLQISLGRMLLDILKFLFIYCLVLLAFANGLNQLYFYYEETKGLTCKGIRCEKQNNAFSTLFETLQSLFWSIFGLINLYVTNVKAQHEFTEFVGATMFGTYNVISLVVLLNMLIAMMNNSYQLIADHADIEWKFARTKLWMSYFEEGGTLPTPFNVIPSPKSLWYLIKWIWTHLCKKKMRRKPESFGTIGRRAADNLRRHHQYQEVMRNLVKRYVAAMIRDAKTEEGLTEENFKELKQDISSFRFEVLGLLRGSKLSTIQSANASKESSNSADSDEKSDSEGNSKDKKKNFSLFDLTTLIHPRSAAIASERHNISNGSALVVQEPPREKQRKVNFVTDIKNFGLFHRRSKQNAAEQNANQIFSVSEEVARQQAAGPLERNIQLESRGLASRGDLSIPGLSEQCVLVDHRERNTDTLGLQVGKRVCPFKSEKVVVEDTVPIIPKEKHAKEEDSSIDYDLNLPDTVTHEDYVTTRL

hTRPC3 = molecular target: T3, hTRPC3 (Homo sapiens, UniProt Q13507); assay: fura-2 intracellular calcium assay, OAG-activated hTRPC3 overexpressed in HEK T-REx cells
T3 construct: gene TRPC3
T3 sequence (Q13507 1-921): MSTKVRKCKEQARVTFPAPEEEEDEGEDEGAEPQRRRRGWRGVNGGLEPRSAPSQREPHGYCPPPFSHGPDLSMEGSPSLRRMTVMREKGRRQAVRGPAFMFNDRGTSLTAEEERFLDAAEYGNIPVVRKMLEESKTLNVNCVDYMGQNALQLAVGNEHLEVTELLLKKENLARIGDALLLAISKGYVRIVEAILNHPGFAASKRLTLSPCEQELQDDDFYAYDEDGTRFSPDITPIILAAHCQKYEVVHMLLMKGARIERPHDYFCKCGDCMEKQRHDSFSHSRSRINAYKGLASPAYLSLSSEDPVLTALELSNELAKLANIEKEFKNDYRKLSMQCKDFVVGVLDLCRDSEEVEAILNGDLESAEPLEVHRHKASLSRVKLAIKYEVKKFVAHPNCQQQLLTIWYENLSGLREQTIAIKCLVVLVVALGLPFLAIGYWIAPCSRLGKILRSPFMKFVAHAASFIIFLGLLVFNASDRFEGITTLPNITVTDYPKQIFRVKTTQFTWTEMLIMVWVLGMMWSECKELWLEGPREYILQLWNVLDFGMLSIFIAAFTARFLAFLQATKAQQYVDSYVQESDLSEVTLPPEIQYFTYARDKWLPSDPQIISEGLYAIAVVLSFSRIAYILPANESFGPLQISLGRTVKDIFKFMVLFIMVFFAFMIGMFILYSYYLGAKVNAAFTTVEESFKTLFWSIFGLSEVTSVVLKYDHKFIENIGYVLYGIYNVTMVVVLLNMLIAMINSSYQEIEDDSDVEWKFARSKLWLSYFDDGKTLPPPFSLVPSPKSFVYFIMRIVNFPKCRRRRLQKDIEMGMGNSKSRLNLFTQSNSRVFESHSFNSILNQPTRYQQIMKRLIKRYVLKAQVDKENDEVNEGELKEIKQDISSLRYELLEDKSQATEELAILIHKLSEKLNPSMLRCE

hTRPC5 = molecular target: T4, hTRPC5 (Homo sapiens, UniProt Q9UL62); assay: fura-2 intracellular calcium assay, S1P-activated hTRPC5 overexpressed in HEK T-REx cells
T4 construct: gene TRPC5
T4 sequence (Q9UL62 1-973): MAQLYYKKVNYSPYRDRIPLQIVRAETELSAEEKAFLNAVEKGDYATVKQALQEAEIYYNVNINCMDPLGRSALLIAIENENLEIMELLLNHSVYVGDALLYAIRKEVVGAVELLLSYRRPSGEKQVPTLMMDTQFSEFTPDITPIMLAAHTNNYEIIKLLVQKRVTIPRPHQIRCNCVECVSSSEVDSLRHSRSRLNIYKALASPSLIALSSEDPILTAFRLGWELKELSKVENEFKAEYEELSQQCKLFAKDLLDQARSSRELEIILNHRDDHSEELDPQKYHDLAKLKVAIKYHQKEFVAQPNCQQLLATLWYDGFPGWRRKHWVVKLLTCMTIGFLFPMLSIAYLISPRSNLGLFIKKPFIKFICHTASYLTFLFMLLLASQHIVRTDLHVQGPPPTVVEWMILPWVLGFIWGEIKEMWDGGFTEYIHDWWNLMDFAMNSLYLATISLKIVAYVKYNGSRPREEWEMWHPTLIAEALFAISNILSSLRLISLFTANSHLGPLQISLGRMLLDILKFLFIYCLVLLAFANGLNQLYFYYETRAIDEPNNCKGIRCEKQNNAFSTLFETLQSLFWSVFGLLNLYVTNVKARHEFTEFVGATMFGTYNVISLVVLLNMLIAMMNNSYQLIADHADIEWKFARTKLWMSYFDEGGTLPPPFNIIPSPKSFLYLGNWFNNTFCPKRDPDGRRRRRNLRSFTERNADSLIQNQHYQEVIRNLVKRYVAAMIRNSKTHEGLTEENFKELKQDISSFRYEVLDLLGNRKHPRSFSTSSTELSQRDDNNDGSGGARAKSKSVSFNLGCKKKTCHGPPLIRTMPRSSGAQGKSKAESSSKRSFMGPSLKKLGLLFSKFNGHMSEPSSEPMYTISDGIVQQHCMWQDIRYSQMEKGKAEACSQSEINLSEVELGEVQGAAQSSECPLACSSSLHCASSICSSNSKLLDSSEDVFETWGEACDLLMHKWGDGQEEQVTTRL
Text: fura-2 intracellular calcium assay, S1P-activated hTRPC5 overexpressed in HEK T-REx cells on hTRPC5 | S1P‐evoked calcium influx mediated by hTRPC4 and hTRPC5 were inhibited by schwarzinicine A

IC50 (hTRPC6): 7 µM
IC50 (hTRPC4): 17 µM
IC50 (hTRPC3): 3 µM
IC50 (hTRPC5): 19 µM
SMILES: COc1ccc(CCNC(CCc2ccc(OC)c(OC)c2)Cc2ccc(OC)c(OC)c2)cc1OC (racemic) [schwarzinicine A, N‐(3,4‐dimethoxyphenethyl)‐1,4‐bis(3,4‐dimethoxyphenyl)butan‐2‐amine]
